Test results published in US7407982B2, “Oligo or polyalkylene glycol-coupled thrombin inhibitors” (HaemoSys GmbH, priority 2001, dated 2008).
Read-outs that look alike come from different tables or passages of the source.

Tests used:
human α-thrombin = biological target: T1, human α-thrombin (Homo sapiens, UniProt P00734); assay: Determination of Ki for thrombin inhibition (chromogenic or fluorogenic substrate, Dixon); type: biochemical; details: for KiTrypsin/KiThrombin: Example 8, selectivity quotient
T1 construct: 50 μl human α-thrombin (Kordia); purchased Kordia
Method: The Ki values are the average values of at least three calculations.
For determining the thrombin inhibiting effect of all reversibly binding inhibitors and inhibitor conjugates with inhibiting constants smaller than 1 nM, a fluorescence spectrometer (LS50B from the company Perkin Elmer) was used. […] The Ki values are the average values of at least three calculations.

trypsin = biological target: T2, trypsin (Bos taurus, UniProt P00760); assay: Ki values for trypsin, determined analogously; type: biochemical
T2 sequence (P00760 24-246): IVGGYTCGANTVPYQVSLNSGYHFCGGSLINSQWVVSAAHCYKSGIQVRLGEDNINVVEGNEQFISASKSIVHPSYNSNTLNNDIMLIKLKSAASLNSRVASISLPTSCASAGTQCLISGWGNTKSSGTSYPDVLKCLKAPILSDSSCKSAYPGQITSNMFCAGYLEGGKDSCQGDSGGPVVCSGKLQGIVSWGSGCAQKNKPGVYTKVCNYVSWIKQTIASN
Method: The Ki values for trypsin were determined analogously.
For optimizing the inhibitor conjugates, in particular of the following Examples 1 and 2, suitable groups R1 were sought which allow as strong a thrombin inhibition as possible. For examining the selectivity of the compounds, the inhibiting constants for trypsin were determined as well. The higher the quotient [KiTrypsin/KiThrombin], the more selectively the compound functions as a thrombin inhibitor. In order to facilitate the synthesis, this optimization was first carried out without coupling a polyalkylene glycol group to inhibitor molecules of formula (II) as listed in Table I. These compounds, which are active as thrombin inhibitors themselves, can be used as synthetic intermediates for the inhibitor conjugates of formula (I). As a central component, a glycyl-prolyl-dipeptide was consistently incorporated into the inhibitors.

[1] = Example 8, read-out: KiThrombin
[2] = Table I, formula (II) compounds

4-Methoxy-benezenesulfonyl-Asn(4-[MeO-PEG5000-CH2CH2CO—NHCH2]-benzyl-Pro-4-amidinobenzylamide
Ki (human α-thrombin; [1]): 0.19 nM

4-Methoxy-benzenesulfonyl-Lys(propionyl-PEG5000-OMe)-Pro-4-amidinobenzylamide
Ki (trypsin; Example 8, read-out: KiTrypsin): 61 nM | KiTrypsin/KiThrombin (human α-thrombin): 64 | Ki (human α-thrombin; [1]): 0.95 nM

COc1ccc(S(=O)(=O)NCC(=O)N2CCC[C@H]2C(=O)NCc2ccc(C(=N)N)cc2)cc1Cl [1a]
Ki (human α-thrombin; [2]): 0.44 nM | Ki Trypsin/Ki Thrombin (human α-thrombin; Table I, selectivity quotient): 45

COc1ccc(S(=O)(=O)NCC(=O)N2CCC[C@H]2C(=O)NCc2ccc(C(=N)N)cc2)cc1C [1b]
Ki (human α-thrombin; [2]): 0.64 nM | Ki Trypsin/Ki Thrombin (human α-thrombin; Table I, selectivity quotient): 20

N=C(N)c1ccc(CNC(=O)[C@@H]2CCCN2C(=O)CNS(=O)(=O)c2ccc(Cl)c(Cl)c2)cc1 [4a]
Ki (human α-thrombin; [2]): 2.5 nM | Ki Trypsin/Ki Thrombin (human α-thrombin; Table I, selectivity quotient): 2.3

Cc1cccc(S(=O)(=O)NCC(=O)N2CCC[C@H]2C(=O)NCc2ccc(C(=N)N)cc2)c1 [4b]
Ki (human α-thrombin; [2]): 2.8 nM | Ki Trypsin/Ki Thrombin (human α-thrombin; Table I, selectivity quotient): 2.9

N#Cc1cccc(S(=O)(=O)NCC(=O)N2CCC[C@H]2C(=O)NCc2ccc(C(=N)N)cc2)c1 [33a]
Ki (human α-thrombin; [2]): 48 nM | Ki Trypsin/Ki Thrombin (human α-thrombin; Table I, selectivity quotient): 0.47

CCOc1ccc(S(=O)(=O)NCC(=O)N2CCC[C@H]2C(=O)NCc2ccc(C(=N)N)cc2)cc1 [33b]
Ki (human α-thrombin; [2]): 66 nM | Ki Trypsin/Ki Thrombin (human α-thrombin; Table I, selectivity quotient): 0.42

N=C(N)c1ccc(CNC(=O)C2CCCN2C(=O)C(CC2CCCCC2)NCC(=O)O)cc1 [H-D-N(CH2—COOH)Cha-Pro-4-(amidino)benzylamide, reference compound]
KiTrypsin/KiThrombin (human α-thrombin): 12 | Ki (human α-thrombin; [1]): 0.3 nM

N=C(N)N1CCC(CNC(=O)C2CCCN2C(=O)C(CC2CCCCC2)NCC(=O)O)CC1 [H-D-N(CH2—COOH)Cha-Pro-4-(amidomethyl)-N(amidino)piperidine, reference compound]
KiTrypsin/KiThrombin (human α-thrombin): 173 | Ki (human α-thrombin; [1]): 1.3 nM

COc1ccc(S(=O)(=O)NC(CCCCN)C(=O)N2CCCC2C(=O)NCc2ccc(C(=N)N)cc2)cc1 (stereo not drawn) [No. 53, 4-Methoxy-benezenesulfonyl-Lys-Pro-4-amidinobenzylamide]
KiTrypsin/KiThrombin (human α-thrombin): 112 | Ki (human α-thrombin; [1]): 0.73 nM

COc1ccc(S(=O)(=O)NC(CC(=O)O)C(=O)N2CCCC2C(=O)NCc2ccc(C(=N)N)cc2)cc1 (stereo not drawn) [No. 55, 4-Methoxy-benezenesulfonyl-Asp-Pro-4-amidinobenzylamide]
KiTrypsin/KiThrombin (human α-thrombin): 48 | Ki (human α-thrombin; [1]): 1.6 nM

COc1cc(C)c(S(=O)(=O)NCC(=O)N2CCC[C@H]2C(=O)NCc2ccc(C(=N)N)cc2)c(C)c1C [compound 2]
Ki (trypsin; [2]): 15.7 nM | Ki (human α-thrombin; [2]): 1.3 nM | Ki Trypsin/Ki Thrombin (human α-thrombin; Table I, selectivity quotient): 12.1

N=C(N)c1ccc(CNC(=O)[C@@H]2CCCN2C(=O)CNS(=O)(=O)Cc2ccccc2)cc1 [compound 6]
Ki (human α-thrombin; [2]): 3.6 nM | Ki Trypsin/Ki Thrombin (human α-thrombin; Table I, selectivity quotient): 2.1

COc1ccc(S(=O)(=O)NCC(=O)N2CCC[C@H]2C(=O)NCc2ccc(C(=N)N)cc2)cc1OC [compound 8]
Ki (human α-thrombin; [2]): 4.7 nM | Ki Trypsin/Ki Thrombin (human α-thrombin; Table I, selectivity quotient): 4.2

N=C(N)c1ccc(CNC(=O)[C@@H]2CCCN2C(=O)CNS(=O)(=O)c2cc(Cl)c(Cl)cc2Cl)cc1 [compound 9]
Ki (human α-thrombin; [2]): 5.9 nM | Ki Trypsin/Ki Thrombin (human α-thrombin; Table I, selectivity quotient): 3.3

N=C(N)c1ccc(CNC(=O)[C@@H]2CCCN2C(=O)CNS(=O)(=O)c2cccc3ccccc23)cc1 [compound 10]
Ki (human α-thrombin; [2]): 7.8 nM | Ki Trypsin/Ki Thrombin (human α-thrombin; Table I, selectivity quotient): 0.5

N=C(N)c1ccc(CNC(=O)[C@@H]2CCCN2C(=O)CNS(=O)(=O)c2cc(Cl)cc(Cl)c2)cc1 [compound 11]
Ki (human α-thrombin; [2]): 8.5 nM | Ki Trypsin/Ki Thrombin (human α-thrombin; Table I, selectivity quotient): 0.4

N=C(N)c1ccc(CNC(=O)[C@@H]2CCCN2C(=O)CNS(=O)(=O)c2ccc3ccccc3c2)cc1 [compound 12]
Ki Trypsin/Ki Thrombin (human α-thrombin; Table 2, selectivity quotient): 6.8 | Ki (human α-thrombin; [2]): 8.5 nM | Ki Trypsin/Ki Thrombin (human α-thrombin; Table I, selectivity quotient): 6.8

N=C(N)c1ccc(CNC(=O)[C@@H]2CCCN2C(=O)CNS(=O)(=O)c2ccc(Cl)cc2)cc1 [compound 13]
Ki (human α-thrombin; [2]): 10 nM | Ki Trypsin/Ki Thrombin (human α-thrombin; Table I, selectivity quotient): 2.7

Cc1cc(S(=O)(=O)NCC(=O)N2CCC[C@H]2C(=O)NCc2ccc(C(=N)N)cc2)c(Cl)cc1Cl [compound 14]
Ki (human α-thrombin; [2]): 10.5 nM | Ki Trypsin/Ki Thrombin (human α-thrombin; Table I, selectivity quotient): 1.1.

N=C(N)c1ccc(CNC(=O)[C@@H]2CCCN2C(=O)CNS(=O)(=O)c2ccccc2)cc1 [compound 15]
Ki (human α-thrombin; [2]): 10.8 nM | Ki Trypsin/Ki Thrombin (human α-thrombin; Table I, selectivity quotient): 0.96

Cc1c(C)c(C)c(S(=O)(=O)NCC(=O)N2CCC[C@H]2C(=O)NCc2ccc(C(=N)N)cc2)c(C)c1C [compound 16]
Ki (human α-thrombin; [2]): 12.7 nM | Ki Trypsin/Ki Thrombin (human α-thrombin; Table I, selectivity quotient): 2.2
